Measurements as given in the supplement of paper PMC8671470.

Assays:
Settings in all cases: 72 h
NOMO-1 [1] = tested on: NOMO-1
How it was run: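 Fifteen myeloid leukaemia lines were incubated for 72 h at 37 °C with 5% CO2 across five tenfold doses from 1 to 10,000 nM, in duplicate. ATP luminescence was normalised to vehicle and to a positive control at 10 µM and fitted with a four-parameter log-logistic model. The IC50 came from these dose–response fits.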

HL-60 [2] = assay: cell viability (% survival relative to DMSO control); higher = less cytotoxic
How it was run: (§1)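 In 384-well plates, the full library was rescreened in duplicate on HL-60 cells in RPMI 1640 with 10% FBS, at 1–10,000 nM in five tenfold concentrations, for 72 h at 37 °C, 5% CO2. Each run also held DMSO or 100 nM of one of three metabolic inhibitors. Viability was measured by CellTiter-Glo and normalised to DMSO wells and to wells with proteasome inhibitor, present at 10 μM. Any area under the curve comes from four-parameter log-logistic fitting with drc and PharmacoGx.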

BV-173 = assay: cell viability (% survival relative to DMSO control, bortezomib = 0%); higher = less cytotoxic
How it was run: (§2)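 Fifteen myeloid leukaemia cell lines were exposed to compounds at 1, 10, 100, 1000 or 10000 nM in 384-well plates for 72 h at 37 °C and 5% CO2. Viability was read by CellTiter-Glo luminescence and normalised, with vehicle as 100% and a 10 µM positive control as 0%. Values are percent survival averaged over duplicates.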

HEL = assay: as above
How it was run: as §2

HL-60 [3] = assay: as above
How it was run: as §2

K-562 = assay: as above
How it was run: as §2

KCL-22 = assay: as above
How it was run: as §2

KG-1 = assay: as above
How it was run: as §2

KU-812 = assay: as above
How it was run: as §2

LAMA-84 = assay: as above
How it was run: as §2

ML-2 = assay: as above
How it was run: as §2

MOLM-13 = assay: as above
How it was run: as §2

MV4-11 = assay: as above
How it was run: as §2

Mono-Mac-6 = assay: as above
How it was run: as §2

NOMO-1 [4] = assay: as above
How it was run: as §2

SHI-1 = assay: as above
How it was run: as §2

THP-1 = assay: as above
How it was run: as §2

HL-60 [5] = assay: area under dose-response curve (viability, 1 nM-10 uM) (fraction (0-1)); higher = more sensitive
How it was run: as §1

Cl.OC[C@H]1NC[C@H](O)[C@@H](O)[C@H]1O [Migalastat]
Settings | IC50 (cell viability) [nM]
NOMO-1 [1] | > 10000

cell viability [%], HL-60 [2]
Settings | 0.001 µM | 0.01 µM | 0.1 µM | 1 µM | 10 µM
co-treatment: AZD3965 100 nM | 106 | 108 | 102.1 | 106 | 102
co-treatment: DMSO vehicle | 103 | 103 | 96.5 | 100 | 95.4
co-treatment: GSK2194069 100 nM | 106 | 110 | 104 | 103 | 94.79
co-treatment: pictilisib 100 nM | 102 | 112 | 99.4 | 106 | 94.1

Settings | area under dose-response curve, co-treatment: AZD3965 100 nM | area under dose-response curve, co-treatment: DMSO vehicle | area under dose-response curve, co-treatment: GSK2194069 100 nM | area under dose-response curve, co-treatment: pictilisib 100 nM | cell viability, 1 nM [%] | cell viability, 10 nM [%] | cell viability, 100 nM [%] | cell viability, 1000 nM [%] | cell viability, 10000 nM [%]
BV-173 | – | – | – | – | 97.1 | 102 | 113 | 105 | 87.6
HEL | – | – | – | – | 99.2 | 99.3 | 101 | 104 | 101
HL-60 [3] | – | – | – | – | 92.9 | 86.1 | 113 | 106 | 106
HL-60 [5] | < 0.0301 | < 0.0301 | < 0.0301 | < 0.0301 | – | – | – | – | –
K-562 | – | – | – | – | 109 | 94.7 | 107 | 101 | 99.1
KCL-22 | – | – | – | – | 95.6 | 90.2 | 101 | 102 | 100
KG-1 | – | – | – | – | 104 | 98.9 | 107 | 99.6 | 96.3
KU-812 | – | – | – | – | 92.1 | 92.3 | 99.4 | 98.1 | 98.5
LAMA-84 | – | – | – | – | 106 | 96.8 | 103 | 99 | 92.7
ML-2 | – | – | – | – | 98.5 | 97.1 | 111 | 103 | 100
MOLM-13 | – | – | – | – | 83.6 | 89.2 | 104 | 116 | 101
MV4-11 | – | – | – | – | 117 | 95.7 | 100 | 104 | 97.2
Mono-Mac-6 | – | – | – | – | 102 | 87.4 | 104 | 98.3 | 103
NOMO-1 [4] | – | – | – | – | 101 | 103 | 104 | 100 | 94.8
SHI-1 | – | – | – | – | 113 | 96.2 | 109 | 102 | 107
THP-1 | – | – | – | – | 102 | 99.1 | 104 | 98.7 | 90.9

O=C(CCl)N(CCCNC(=O)C(F)(F)F)c1ccc([N+](=O)[O-])cc1 [ML175]
Settings | IC50 (cell viability) [nM]
NOMO-1 [1] | 305

cell viability [%], HL-60 [2]
Settings | 0.001 µM | 0.01 µM | 0.1 µM | 1 µM | 10 µM
co-treatment: AZD3965 100 nM | 103 | 100 | 102.27 | 104 | 0.129
co-treatment: DMSO vehicle | 104 | 103 | 99.79 | 99.8 | -1.45
co-treatment: GSK2194069 100 nM | 100 | 92.97 | 98.3 | 95.2 | -1.73
co-treatment: pictilisib 100 nM | 101 | 94.4 | 98.5 | 95.1 | 1.1

Settings | area under dose-response curve, co-treatment: AZD3965 100 nM | area under dose-response curve, co-treatment: DMSO vehicle | area under dose-response curve, co-treatment: GSK2194069 100 nM | area under dose-response curve, co-treatment: pictilisib 100 nM | cell viability, 1 nM [%] | cell viability, 10 nM [%] | cell viability, 100 nM [%] | cell viability, 1000 nM [%] | cell viability, 10000 nM [%]
BV-173 | – | – | – | – | 122 | 99.9 | 101 | -0.0318 | -0.742
HEL | – | – | – | – | 105 | 106 | 96.3 | -0.0497 | -0.423
HL-60 [3] | – | – | – | – | 104 | 111 | 110 | 83.4 | -1.03
HL-60 [5] | 0.125 | 0.133 | 0.14 | 0.136 | – | – | – | – | –
K-562 | – | – | – | – | 101 | 91.9 | 99.6 | 95.7 | -0.364
KCL-22 | – | – | – | – | 113 | 118 | 85 | 82.5 | -0.718
KG-1 | – | – | – | – | 109 | 109 | 96.8 | 6.67 | -0.879
KU-812 | – | – | – | – | 99.1 | 96.8 | 89.7 | 81.3 | -0.456
LAMA-84 | – | – | – | – | 107 | 106 | 90.5 | 89.9 | -0.333
ML-2 | – | – | – | – | 97 | 102 | 94.5 | 0.519 | -0.998
MOLM-13 | – | – | – | – | 89.5 | 115 | 92.4 | 0.57 | -1.51
MV4-11 | – | – | – | – | 93.6 | 93 | 95.6 | -0.18 | -0.931
Mono-Mac-6 | – | – | – | – | 101 | 104 | 98.2 | 44.6 | -1.09
NOMO-1 [4] | – | – | – | – | 96.3 | 97.8 | 97.8 | 0.0839 | -0.851
SHI-1 | – | – | – | – | 95 | 127 | 85.1 | 107 | -0.834
THP-1 | – | – | – | – | 99.7 | 102 | 91.9 | 94.2 | -2.38
